{
  "source": "paper PMC10924921",
  "about": "“Mi-2β promotes immune evasion in melanoma by activating EZH2 methylation” (Nature Communications, 2024)",
  "experiment_in_all_cases": "biochemical",
  "design_in_all_cases": "KINOMEscan active-site competition binding panel (468 kinase assays), per cent of control at 1000 nM",
  "conditions_in_all_cases": "KINOMEscan per cent of control (binding competition); read-out: Percent Control",
  "key": {"MARK1": {"target": "MARK1 (Homo sapiens, UniProt Q9P0L2)", "text": "(§1) Figure S7 / Percent Control"}, "CDK7": {"target": "CDK7 (Homo sapiens, UniProt P50613)", "text": "as §1"}, "BRAF(V600E)": {"target": "BRAF(V600E) (Homo sapiens, UniProt P15056, V600E)", "sequence (P15056 whole entry V600E)": "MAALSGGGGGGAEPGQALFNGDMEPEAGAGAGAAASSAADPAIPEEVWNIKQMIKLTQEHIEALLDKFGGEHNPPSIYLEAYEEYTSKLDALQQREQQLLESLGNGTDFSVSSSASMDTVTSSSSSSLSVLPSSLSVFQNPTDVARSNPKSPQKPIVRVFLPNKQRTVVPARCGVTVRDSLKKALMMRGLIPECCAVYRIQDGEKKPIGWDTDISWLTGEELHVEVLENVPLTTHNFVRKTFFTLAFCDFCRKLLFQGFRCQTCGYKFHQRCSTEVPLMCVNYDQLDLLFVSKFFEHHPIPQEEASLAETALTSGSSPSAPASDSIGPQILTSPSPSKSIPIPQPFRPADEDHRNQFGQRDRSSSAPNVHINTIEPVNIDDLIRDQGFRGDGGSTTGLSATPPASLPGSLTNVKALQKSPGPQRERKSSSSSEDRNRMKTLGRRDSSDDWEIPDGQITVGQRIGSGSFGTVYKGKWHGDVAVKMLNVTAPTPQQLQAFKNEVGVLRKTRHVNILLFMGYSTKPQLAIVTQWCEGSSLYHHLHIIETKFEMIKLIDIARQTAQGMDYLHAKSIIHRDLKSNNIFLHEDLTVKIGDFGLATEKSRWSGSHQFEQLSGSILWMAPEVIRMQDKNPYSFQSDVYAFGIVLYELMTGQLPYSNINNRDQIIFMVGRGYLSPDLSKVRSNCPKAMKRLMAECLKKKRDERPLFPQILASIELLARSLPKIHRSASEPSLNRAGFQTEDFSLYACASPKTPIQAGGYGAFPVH", "text": "as §1"}, "ERN1": {"target": "ERN1 (Homo sapiens, UniProt O75460)", "sequence (O75460 whole entry)": "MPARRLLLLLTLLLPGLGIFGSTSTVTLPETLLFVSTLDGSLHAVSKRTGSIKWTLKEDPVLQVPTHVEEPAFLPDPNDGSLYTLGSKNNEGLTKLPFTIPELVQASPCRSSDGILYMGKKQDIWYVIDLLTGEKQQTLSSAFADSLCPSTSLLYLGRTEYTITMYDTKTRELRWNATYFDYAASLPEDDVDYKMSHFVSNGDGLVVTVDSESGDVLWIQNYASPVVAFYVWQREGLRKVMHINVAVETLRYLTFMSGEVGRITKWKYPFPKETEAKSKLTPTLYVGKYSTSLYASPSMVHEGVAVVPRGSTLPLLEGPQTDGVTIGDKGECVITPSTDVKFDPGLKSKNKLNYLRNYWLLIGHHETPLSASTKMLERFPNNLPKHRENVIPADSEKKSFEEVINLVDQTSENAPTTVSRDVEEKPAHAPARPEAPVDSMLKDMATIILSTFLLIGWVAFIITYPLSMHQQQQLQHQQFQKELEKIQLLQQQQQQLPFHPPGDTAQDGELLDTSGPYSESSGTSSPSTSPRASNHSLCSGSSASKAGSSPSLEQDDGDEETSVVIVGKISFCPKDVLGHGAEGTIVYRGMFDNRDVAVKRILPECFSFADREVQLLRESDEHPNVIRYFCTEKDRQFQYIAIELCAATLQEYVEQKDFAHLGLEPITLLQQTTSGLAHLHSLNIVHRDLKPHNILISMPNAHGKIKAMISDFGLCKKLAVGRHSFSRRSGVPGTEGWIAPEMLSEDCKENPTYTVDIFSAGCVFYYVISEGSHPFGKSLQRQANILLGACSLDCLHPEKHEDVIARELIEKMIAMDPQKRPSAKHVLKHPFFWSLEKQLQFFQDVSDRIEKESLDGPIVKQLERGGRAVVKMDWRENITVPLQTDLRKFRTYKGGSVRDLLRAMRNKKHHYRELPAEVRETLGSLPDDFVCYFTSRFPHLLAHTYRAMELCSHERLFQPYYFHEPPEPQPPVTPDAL", "text": "as §1"}, "PCTK2": {"target": "T1, PCTK2 (Homo sapiens, UniProt Q00537)", "T1 construct": "gene CDK17", "text": "as §1"}, "VPS34": {"target": "T2, VPS34 (Homo sapiens, UniProt Q8NEB9)", "T2 construct": "gene PIK3C3", "text": "as §1"}, "STK39": {"target": "STK39 (Homo sapiens, UniProt Q9UEW8)", "text": "as §1"}, "RIOK1": {"target": "RIOK1 (Homo sapiens, UniProt Q9BRS2)", "text": "as §1"}, "CSNK1G3": {"target": "CSNK1G3 (Homo sapiens, UniProt Q9Y6M4)", "text": "as §1"}, "PRKCQ": {"target": "PRKCQ (Homo sapiens, UniProt Q04759)", "sequence (Q04759 whole entry)": "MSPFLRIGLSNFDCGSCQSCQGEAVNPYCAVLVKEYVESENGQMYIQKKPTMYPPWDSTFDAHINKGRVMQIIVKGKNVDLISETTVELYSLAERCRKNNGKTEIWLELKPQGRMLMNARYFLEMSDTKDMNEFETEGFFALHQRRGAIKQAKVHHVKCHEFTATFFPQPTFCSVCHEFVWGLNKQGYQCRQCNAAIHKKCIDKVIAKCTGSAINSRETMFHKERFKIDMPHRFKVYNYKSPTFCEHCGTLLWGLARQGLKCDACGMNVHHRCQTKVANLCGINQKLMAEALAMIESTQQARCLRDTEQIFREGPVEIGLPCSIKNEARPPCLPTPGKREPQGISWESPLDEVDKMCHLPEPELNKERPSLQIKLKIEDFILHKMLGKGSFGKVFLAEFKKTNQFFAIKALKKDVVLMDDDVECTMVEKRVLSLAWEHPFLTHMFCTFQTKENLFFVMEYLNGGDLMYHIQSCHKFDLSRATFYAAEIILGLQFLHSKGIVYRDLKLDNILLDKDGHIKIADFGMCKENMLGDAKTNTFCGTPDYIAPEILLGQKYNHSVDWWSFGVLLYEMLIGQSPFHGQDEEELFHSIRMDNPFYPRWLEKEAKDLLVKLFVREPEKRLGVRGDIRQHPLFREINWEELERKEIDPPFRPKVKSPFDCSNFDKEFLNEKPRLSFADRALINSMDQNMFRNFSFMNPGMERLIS", "text": "as §1"}, "PRKCH": {"target": "PRKCH (Homo sapiens, UniProt P24723)", "text": "as §1"}, "TNIK": {"target": "TNIK (Homo sapiens, UniProt Q9UKE5)", "sequence (Q9UKE5 whole entry)": "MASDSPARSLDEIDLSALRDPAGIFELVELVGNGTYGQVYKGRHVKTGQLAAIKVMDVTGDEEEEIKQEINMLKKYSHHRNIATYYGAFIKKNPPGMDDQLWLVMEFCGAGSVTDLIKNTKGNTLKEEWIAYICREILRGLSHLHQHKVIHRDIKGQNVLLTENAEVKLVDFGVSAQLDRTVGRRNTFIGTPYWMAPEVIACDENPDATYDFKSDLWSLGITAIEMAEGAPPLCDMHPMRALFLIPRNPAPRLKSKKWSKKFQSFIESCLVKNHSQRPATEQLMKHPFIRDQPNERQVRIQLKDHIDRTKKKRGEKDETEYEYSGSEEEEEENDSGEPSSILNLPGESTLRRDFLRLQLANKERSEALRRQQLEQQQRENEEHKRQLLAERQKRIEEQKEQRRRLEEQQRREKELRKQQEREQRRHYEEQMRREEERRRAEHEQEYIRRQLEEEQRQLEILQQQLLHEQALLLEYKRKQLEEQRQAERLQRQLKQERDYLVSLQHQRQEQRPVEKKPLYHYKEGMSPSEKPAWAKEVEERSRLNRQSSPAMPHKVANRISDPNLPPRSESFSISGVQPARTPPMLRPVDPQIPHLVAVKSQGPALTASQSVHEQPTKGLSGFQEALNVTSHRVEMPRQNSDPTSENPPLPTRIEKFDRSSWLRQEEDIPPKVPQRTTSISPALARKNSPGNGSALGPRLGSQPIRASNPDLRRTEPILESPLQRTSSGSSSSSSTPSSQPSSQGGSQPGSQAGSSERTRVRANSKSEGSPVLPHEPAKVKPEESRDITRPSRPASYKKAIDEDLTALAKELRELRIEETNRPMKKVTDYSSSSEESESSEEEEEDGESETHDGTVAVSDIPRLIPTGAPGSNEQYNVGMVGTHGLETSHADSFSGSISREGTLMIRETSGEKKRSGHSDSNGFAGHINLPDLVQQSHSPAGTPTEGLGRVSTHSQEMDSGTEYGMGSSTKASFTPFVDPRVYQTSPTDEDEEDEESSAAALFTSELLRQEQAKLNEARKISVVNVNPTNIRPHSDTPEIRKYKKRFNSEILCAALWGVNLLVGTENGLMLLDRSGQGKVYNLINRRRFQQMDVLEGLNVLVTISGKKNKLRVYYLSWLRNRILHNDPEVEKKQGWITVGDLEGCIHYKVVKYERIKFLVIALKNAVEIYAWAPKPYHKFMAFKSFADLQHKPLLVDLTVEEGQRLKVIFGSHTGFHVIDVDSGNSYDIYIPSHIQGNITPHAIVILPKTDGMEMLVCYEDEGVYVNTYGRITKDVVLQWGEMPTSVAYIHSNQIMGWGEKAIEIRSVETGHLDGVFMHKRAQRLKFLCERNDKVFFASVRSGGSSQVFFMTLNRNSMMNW", "text": "as §1"}, "[1]": {"target": "T3, ABL1(Y253F)-phosphorylated (Homo sapiens, UniProt P00519, Y253F)", "T3 construct": "phosphorylated", "text": "as §1"}, "MLK1": {"target": "T4, MLK1 (Homo sapiens, UniProt P80192)", "T4 construct": "gene MAP3K9", "text": "as §1"}, "TAK1": {"target": "T5, TAK1 (Homo sapiens, UniProt O43318)", "T5 construct": "gene MAP3K7", "text": "as §1"}, "EGFR(T790M)": {"target": "EGFR(T790M) (Homo sapiens, UniProt P00533, T790M)", "text": "as §1"}, "PIP5K1C": {"target": "PIP5K1C (Homo sapiens, UniProt O60331)", "text": "as §1"}, "IKK-epsilon": {"target": "T6, IKK-epsilon (Homo sapiens, UniProt Q14164)", "T6 construct": "gene IKBKE", "text": "as §1"}, "MELK": {"target": "MELK (Homo sapiens, UniProt Q14680)", "sequence (Q14680 whole entry)": "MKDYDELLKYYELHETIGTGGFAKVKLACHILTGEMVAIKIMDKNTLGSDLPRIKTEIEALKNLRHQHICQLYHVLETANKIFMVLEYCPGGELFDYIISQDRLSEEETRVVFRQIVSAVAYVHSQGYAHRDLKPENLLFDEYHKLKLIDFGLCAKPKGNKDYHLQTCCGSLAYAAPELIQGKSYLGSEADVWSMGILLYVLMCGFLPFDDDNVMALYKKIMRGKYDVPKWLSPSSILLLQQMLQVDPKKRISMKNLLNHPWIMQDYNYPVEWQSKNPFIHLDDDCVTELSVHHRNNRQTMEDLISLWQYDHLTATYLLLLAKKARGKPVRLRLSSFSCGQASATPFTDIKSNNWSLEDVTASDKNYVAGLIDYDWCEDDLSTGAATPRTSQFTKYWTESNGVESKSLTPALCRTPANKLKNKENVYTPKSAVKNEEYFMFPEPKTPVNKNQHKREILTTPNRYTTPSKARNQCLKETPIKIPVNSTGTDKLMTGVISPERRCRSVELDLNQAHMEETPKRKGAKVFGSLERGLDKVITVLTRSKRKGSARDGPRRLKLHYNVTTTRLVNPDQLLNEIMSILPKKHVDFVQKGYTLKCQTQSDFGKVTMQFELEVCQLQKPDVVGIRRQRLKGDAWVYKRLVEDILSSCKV", "text": "as §1"}, "MEK5": {"target": "T7, MEK5 (Homo sapiens, UniProt Q13163)", "T7 construct": "gene MAP2K5", "text": "as §1"}, "MET(Y1235D)": {"target": "MET(Y1235D) (Homo sapiens, UniProt P08581, Y1235D)", "text": "as §1"}, "TNK2": {"target": "TNK2 (Homo sapiens, UniProt Q07912)", "text": "as §1"}, "LIMK2": {"target": "LIMK2 (Homo sapiens, UniProt P53671)", "sequence (P53671 whole entry)": "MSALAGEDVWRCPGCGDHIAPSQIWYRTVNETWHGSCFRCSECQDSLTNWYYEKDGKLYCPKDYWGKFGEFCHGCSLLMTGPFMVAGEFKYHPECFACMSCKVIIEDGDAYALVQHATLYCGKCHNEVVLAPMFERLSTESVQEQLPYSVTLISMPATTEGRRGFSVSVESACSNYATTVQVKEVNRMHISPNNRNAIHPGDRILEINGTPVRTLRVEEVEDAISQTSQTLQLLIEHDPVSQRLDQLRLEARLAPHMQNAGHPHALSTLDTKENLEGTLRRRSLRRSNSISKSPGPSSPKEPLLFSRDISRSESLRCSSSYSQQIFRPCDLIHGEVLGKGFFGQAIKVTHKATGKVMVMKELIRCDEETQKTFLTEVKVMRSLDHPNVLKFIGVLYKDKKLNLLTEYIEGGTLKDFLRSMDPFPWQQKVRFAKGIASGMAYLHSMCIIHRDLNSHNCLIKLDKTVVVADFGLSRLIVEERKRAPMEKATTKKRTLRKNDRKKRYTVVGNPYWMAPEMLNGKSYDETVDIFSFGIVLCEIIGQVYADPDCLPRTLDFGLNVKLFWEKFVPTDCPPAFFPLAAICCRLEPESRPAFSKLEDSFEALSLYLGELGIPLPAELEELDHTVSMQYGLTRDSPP", "text": "as §1"}, "RIPK1": {"target": "RIPK1 (Homo sapiens, UniProt Q13546)", "text": "as §1"}, "MTOR": {"target": "MTOR (Homo sapiens, UniProt P42345)", "text": "as §1"}},
  "data": [
    {"smiles": "Cn1c(=O)[nH]c2ccc(-c3cccc(C(=O)NC4CCn5ccnc5C4)c3)cc21", "note": "(stereo not shown) [Z36-MP5]", "values": [
      {"measurement": "remaining binding at 1 µM", "setting": "MARK1", "value": 92, "unit": "%"},
      {"measurement": "remaining binding at 1 µM", "setting": "CDK7", "value": 42, "unit": "%"},
      {"measurement": "remaining binding at 1 µM", "setting": "BRAF(V600E)", "value": 89, "unit": "%"},
      {"measurement": "remaining binding at 1 µM", "setting": "ERN1", "value": 49, "unit": "%"},
      {"measurement": "remaining binding at 1 µM", "setting": "PCTK2", "value": 94, "unit": "%"},
      {"measurement": "remaining binding at 1 µM", "setting": "VPS34", "value": 49, "unit": "%"},
      {"measurement": "remaining binding at 1 µM", "setting": "STK39", "value": 60, "unit": "%"},
      {"measurement": "remaining binding at 1 µM", "setting": "RIOK1", "value": 47, "unit": "%"},
      {"measurement": "remaining binding at 1 µM", "setting": "CSNK1G3", "value": 74, "unit": "%"},
      {"measurement": "remaining binding at 1 µM", "setting": "PRKCQ", "value": 86, "unit": "%"},
      {"measurement": "remaining binding at 1 µM", "setting": "PRKCH", "value": 52, "unit": "%"},
      {"measurement": "remaining binding at 1 µM", "setting": "TNIK", "value": 98, "unit": "%"},
      {"measurement": "remaining binding at 1 µM", "setting": "[1]", "value": 72, "unit": "%"},
      {"measurement": "remaining binding at 1 µM", "setting": "MLK1", "value": 98, "unit": "%"},
      {"measurement": "remaining binding at 1 µM", "setting": "TAK1", "value": 84, "unit": "%"},
      {"measurement": "remaining binding at 1 µM", "setting": "EGFR(T790M)", "value": 44, "unit": "%"},
      {"measurement": "remaining binding at 1 µM", "setting": "PIP5K1C", "value": 66, "unit": "%"},
      {"measurement": "remaining binding at 1 µM", "setting": "IKK-epsilon", "value": 84, "unit": "%"},
      {"measurement": "remaining binding at 1 µM", "setting": "MELK", "value": 85, "unit": "%"},
      {"measurement": "remaining binding at 1 µM", "setting": "MEK5", "value": 60, "unit": "%"},
      {"measurement": "remaining binding at 1 µM", "setting": "MET(Y1235D)", "value": 93, "unit": "%"},
      {"measurement": "remaining binding at 1 µM", "setting": "TNK2", "value": 41, "unit": "%"},
      {"measurement": "remaining binding at 1 µM", "setting": "LIMK2", "value": 96, "unit": "%"},
      {"measurement": "remaining binding at 1 µM", "setting": "RIPK1", "value": 87, "unit": "%"},
      {"measurement": "remaining binding at 1 µM", "setting": "MTOR", "value": 87, "unit": "%"}
    ]}
  ]
}
